For series [1], the system named is C57BL/6 mice. As to the kind of experiment: In vivo delivery of luciferase mRNA by intramuscular injection of LNPs (IVIS imaging). Conditions: total fluorescence intensity, Luc mRNA LNP, 0.5 mg/kg mRNA, 12 hours. The protocol:
Preparation of lipid nanoparticles: same as Example 36.
(§1) Animal preparation: 6-week-old female C57BL/6 mice weighing about 20 g were selected and raised in an SPF-grade feeding room. Animal experiments were conducted strictly in accordance with the guidelines of the National Institutes of Health and animal ethics requirements.
In vivo delivery: Five C57BL/6 mice were randomly selected from each group and injected with lipid nanoparticle solution at a dose of 0.5 mg/kg mRNA by intramuscular injection. Twelve hours later, 200 µL of 10 mg/mL D-luciferin potassium salt was injected into the peritoneal cavity of each mouse. Five minutes later, the mice were placed under an in vivo imaging system (IVIS-200, Xenogen) to observe the total fluorescence intensity of each mouse and take photos for recording. The expression intensity of Luc mRNA delivered by intramuscular injection of LNPs composed of representative amino lipid compounds is shown in Table 3, with DLin-MC3 and SM-102 as controls. Table 3 Expression intensity of Luc mRNA delivered by intramuscular injection of LNPs composed of representative amino lipids

Series [2] is described as follows: Encapsulation efficiency of Luc-mRNA lipid nanoparticles (Quant-iT RiboGreen RNA Kit). Type of series: physicochemical. Conditions: LNP of amino lipid:DSPC:cholesterol:DMG-PEG2000 47.5:10:41:1.5 with Luc-mRNA; lipid to mRNA mass ratio about 40:1. The protocol: (§2) The amino lipid compound of the present invention (or DLin-MC3 or SM-102 (both purchased from AVT (Shanghai) Pharmaceutical Technology Co., Ltd.)), phospholipid lipid (DSPC), cholesterol, and PEGylated lipid (DMG-PEG2000) were mixed and dissolved in anhydrous ethanol at a molar ratio of 47.5:10:41:1.5. The resulting ethanol solution and citric acid buffer (50 mM, pH = 4.0) dissolved with Luc-mRNA (TriLink) were mixed in a microfluidic chip at a volume ratio of 1:3 using a microfluidic preparation system to prepare a crude solution of lipid nanoparticles, which was then dialyzed in 1X PBS at 4°C for 6 h using a dialysis cassette (Fisher, MWCO 20,000). The product was filtered through a 0.22 µm microporous filter membrane before use. The mass ratio of the amino lipid compound to luciferase mRNA (Luc mRNA) was about 40:1.
The encapsulation efficiency was determined according to the standard procedure of the Quant-iT RiboGreen RNA Kit. Table 1 Characterization data of LNPs prepared using representative amino lipid compounds

Series [3] in a line: Particle size and PDI of Luc-mRNA lipid nanoparticles (Nano-ZS ZEN3600, Malvern). The conditions noted are these: LNP of amino lipid:DSPC:cholesterol:DMG-PEG2000 47.5:10:41:1.5 with Luc-mRNA; lipid to mRNA mass ratio about 40:1. Type of series: physicochemical. The protocol: as §2
The particle size and PDI (polydispersity index) of the prepared lipid nanoparticles were measured by Nano-ZSZEN3600 (Malvern). 20 µL of lipid nanoparticle (LNP) solution was taken for particle size measurement, and cycled three times with each cycle for 30 s.

In series [4] the test system is primary BMDC cells. As to the kind of experiment: Transfection of Luc mRNA lipid nanoparticles on primary BMDC cells (ONE-Glo luciferase readout). Type of series: cell-based, C57BL/6 mice. Conditions: expression intensity of Luc mRNA on BMDCs; 10 µL LNP per well, 20,000 cells per well, 12 hours. As for the experimental part:
as §1
Cell acquisition: C57BL/6 mice were sacrificed by cervical dislocation and immersed in 75% alcohol for 5 minutes for disinfection. The thigh and tibia of the mice were dissected and the attached muscles were removed to expose the bone. The bone marrow in the tibia was blown out with a 1 mL syringe filled with PBS. The obtained bone marrow was dispersed by blowing and filtered through a 50 µm filter mesh to remove impurities. Red blood cell lysis solution (3-4 mL) was added to the obtained filtrate and allowed to stand for 5 minutes. Then, the supernatant was removed by centrifugation at 800 g for 5 minutes. The obtained cells were placed in 1640 culture medium (containing 10% fetal bovine serum, 20 ng/mL GMCSF, 10 ng/mL IL4) for being resuspended, and inoculated into 6-well plates at a density of 100,000 cells/mL of culture medium. The plates were placed in a cell culture incubator containing 5% CO2 at 37°C, and the medium was half-changed every 2 days. On the seventh day, the suspended cells and loosely adherent cells were collected and inoculated into 96-well all-white ELISA plates at a density of 20,000 cells per well, with a culture medium volume of 100 µL.
Cell transfection: the lipid nanoparticles encapsulating luciferase mRNA were added to a 96-well all-white ELISA plate with spreaded primary cells, and the volume of mRNA lipid nanoparticles added to each well was controlled to be 10 µL. Then, the plate was placed in an incubator with 5% CO2 concentration at 37°C for 12 hours.
Transfection efficiency detection: 20 µL of substrate ONE-Glo™ Luciferase was added to each well of a 96-well all-white ELISA plate, and the assay was performed using a multifunctional microplate reader (Biorek SynergyH1) after 1 min. The expression intensity of Luc mRNA transfected on BMDCs by lipid nanoparticles (LNPs) composed of representative amino lipid compounds is shown in Table 2, with DLin-MC3 and SM0102 as controls. Table 2 Expression intensity of transfection of representative amino lipid compounds on BMDCs

The test system of series [5] is B16-OVA melanoma cells. As to the kind of experiment: Tumor therapeutic effect of OVA mRNA LNP vaccine in B16-OVA melanoma-bearing mice. Type of series: in vivo, C57BL/6 mice. Conditions: for mice achieved complete remission: two intramuscular injections 7 days apart of LNP containing 1 µg OVA-mRNA (Figure 3); for tumor growth rate: two intramuscular injections 7 days apart of LNP containing 1 µg OVA-mRNA, compared with MC3 group (Figure 2). The protocol: Preparation method: The amino lipid compound of the present invention was mixed with DSPC, cholesterol and DMG-PEG2000 at a molar ratio of 47.5:10:41:1.5 and dissolved in anhydrous ethanol. The obtained ethanol solution and citric acid buffer (50 mM, pH = 4.0) dissolved with OVA-mRNA were mixed in a microfluidic chip at a volume ratio of 1:3 using a microfluidic preparation system to prepare lipid nanoparticles, and then dialyzed in 1X PBS at 4°C for 6 h using a dialysis cassette (Fisher, MWCO 20,000) and filtered with a 0.22 µm microporous filter membrane before use. The mass ratio of the amino lipid compound to ovalbumin mRNA (OVA mRNA) was about 40: 1.
Animal preparation: Female C57BL/6 mice aged 5-6 weeks, weighing about 18-20 g were selected and kept in an SPF-grade feeding room. Animal experiments were conducted strictly in accordance with the guidelines of the National Institutes of Health and animal ethics requirements.
In vivo delivery: B16-OVA melanoma cells (1.5 × 10^5) were injected subcutaneously into the lateral thigh of mice. Vaccination was started when the tumor size reached 50 mm^3(approximately day 6 or 7 after tumor inoculation). Animals were immunized twice by intramuscular injection of LNP formulation containing 1 µg of OVA-mRNA, with an interval of the second injection from the first injection being 7 days. Tumor growth was measured three times per week using a digital caliper and calculated as 0.5 × length × width × width. Mice were euthanized when tumor volume reached 1500 mm^3.

Consider `CCCCCCCCCCC(COC(=O)CCCCC)OC(=O)CCCCCN(CCCCCC(=O)OC(CCCCCCCCCC)COC(=O)CCCCC)[C@H]1CC[C@H](O)CC1` (relative stereo) [E12LA6B6O10], for which the Fluorescence intensity in series [1] came out at 1.6E+09. Further, the “Encapsulation efficiency (%)” value in series [2] worked out at 93.0%. In series [3], the “Average particle size (nm)” value is 102 nm and the PDI amounted to 0.10.

Consider `CCCCC/C=C\C/C=C\CCCCCCCCC(CCCCCCCC/C=C\C/C=C\CCCCC)OC(=O)CCCN(C)C` [DLin-MC3, reference compound], for which the Fluorescence intensity in series [1] is 7.6 E+08. Besides, the “Encapsulation efficiency (%)” value in series [2] worked out at 89.74%. For the same compound, the Luminescence intensity in series [4] is given as 4.1E+04. Besides, in series [3], the “Average particle size (nm)” value turned out to be 72 nm and the PDI is reported as 0.12.

In turn, `CCCCCCCC(=O)OCC(CCCCCC)OC(=O)CCCCCN(CCCO)CCCCCC(=O)OC(CCCCCC)COC(=O)CCCCCCC` (stereo not shown) [E8LA8B6O3] showed a Fluorescence intensity in series [1] of 7.7E+08. Besides, the “Encapsulation efficiency (%)” value in series [2] stood at 90.03%. In series [4], the Luminescence intensity is recorded as 1.3E+05. In series [3], the “Average particle size (nm)” value worked out at 84 nm and the PDI was found to be 0.07.

`CCCCCCCCCC(=O)OCC(CCCCCC)OC(=O)CCCCCN(CCCO)CCCCCC(=O)OC(CCCCCC)COC(=O)CCCCCCCCC` (stereo not shown) [E8LA10B6O3] showed a Fluorescence intensity in series [1] of 1.6E+09. Further, the “Encapsulation efficiency (%)” value in series [2] came out at 93.95%. For the same compound, the Luminescence intensity in series [4] amounted to 5.2E+04. In addition, in series [3], the “Average particle size (nm)” value worked out at 73 nm and the PDI was 0.09.

`CCCCCCCCC(COC(=O)CCCCC)OC(=O)CCCCCN(CCCO)CCCCCC(=O)OC(CCCCCCCC)COC(=O)CCCCC` (stereo not shown) [E10LA6B6O3] yielded a Fluorescence intensity in series [1] of 1.4E+09. The “Encapsulation efficiency (%)” value in series [2] turned out to be 95.41%. In series [5], the “mice achieved complete remission” value came out at 80% and the tumor growth rate result was “significantly slower than that of the MC3 group”. Moreover, the Luminescence intensity in series [4] is on record as 1.5E+05. In series [3], the “Average particle size (nm)” value amounted to 92 nm and the PDI stood at 0.07.

`CCCCCCCCC(COC(=O)CCCCCCC)OC(=O)CCCCCN(CCCO)CCCCCC(=O)OC(CCCCCCCC)COC(=O)CCCCCCC` (stereo not shown) [E10LA8B6O3] returned a Fluorescence intensity in series [1] of 1.8E+09. Moreover, the “Encapsulation efficiency (%)” value in series [2] was 92.23%. For the same compound, in series [3], the “Average particle size (nm)” value turned out to be 71 nm and the PDI was found to be 0.11.

Compound `CCCCCCCCCC(=O)OCC(CCCCCCCC)OC(=O)CCCCCN(CCCO)CCCCCC(=O)OC(CCCCCCCC)COC(=O)CCCCCCCCC` (stereo not shown) [E10LA10B6O3] showed a Fluorescence intensity in series [1] of 1.2E+09. For the same compound, the “Encapsulation efficiency (%)” value in series [2] is on record as 95.90%. Besides, the Luminescence intensity in series [4] came to 6.9E+04. Also, in series [3], the “Average particle size (nm)” value turned out to be 70 nm and the PDI turned out to be 0.06.

Regarding `CCCCCCCCCCC(COC(=O)CCCCC)OC(=O)CCCCCN(CCCCCC(=O)OC(CCCCCCCCCC)COC(=O)CCCCC)CCCOC(=O)CCCCCCN(C)C` (stereo not shown) [E12LA6B6O3A6], the Fluorescence intensity in series [1] was found to be 1.5E+09. Besides, the “Encapsulation efficiency (%)” value in series [2] is given as 98.5%. Also, in series [3], the “Average particle size (nm)” value was found to be 103 nm and the PDI is listed as 0.07.

`CCCCCCCCCCC(COC(=O)CCCCC)OC(=O)CCCCCN(CCCO)CCCCCC(=O)OC(CCCCCCCCCC)COC(=O)CCCCC` (stereo not shown) [E12LA6B6O3] came in with a Fluorescence intensity in series [1] of 2.2E+09. Moreover, the “Encapsulation efficiency (%)” value in series [2] is 98.26%. In addition, in series [5], the “mice achieved complete remission” value is 100% and the tumor growth rate entry is “significantly slower than that of the MC3 group”. In series [3], the “Average particle size (nm)” value was determined as 75 nm and the PDI worked out at 0.08.

As to `CCCCCCCCCCC(COC(=O)CCCCCCC)OC(=O)CCCCCN(CCCO)CCCCCC(=O)OC(CCCCCCCCCC)COC(=O)CCCCCCC` (stereo not shown) [E12LA8B6O3], the Fluorescence intensity in series [1] turned out to be 8.2E+08. For the same compound, in series [2], the “Encapsulation efficiency (%)” value is 94.90%. Also, the Luminescence intensity in series [4] came out at 7.6E+04. For the same compound, in series [3], the “Average particle size (nm)” value is on record as 73 nm and the PDI was determined as 0.10.

`CCCCCCCCCCC(CCOC(=O)CCCCC)OC(=O)CCCCCN(CCCO)CCCCCC(=O)OC(CCCCCCCCCC)CCOC(=O)CCCCC` (stereo not shown) [K3LA6B6O3]: in series [1], the Fluorescence intensity came to 2.0E+09. Also, the “Encapsulation efficiency (%)” value in series [2] is 98.8%. The Luminescence intensity in series [4] came out at 5.4E+05. For the same compound, in series [3], the “Average particle size (nm)” value was 129 nm and the PDI was 0.08.

(Values after patent EP4685136A1, “AMINO LIPID, AND LIPID NANOPARTICLES AND USE THEREOF” (Shenzhen MagicRNA Biotechnology Co., Ltd., priority 2023, dated 2024).)
